How the values were obtained:
Format in all cases: cell-based
[1] = tested on: human mesenchymal stem cells; test: Introduction of GFP mRNA by lipofection, yield of GFP-positive cells; conditions: calcitriol 1 μM; GFP mRNA containing pseudouridine instead of uridine, 10 pg/cell
Description: (§1) Human mesenchymal stem cells were seeded in a 6-well plate to be about 10,000 cells/cm^2. Human myoblasts were seeded in another 6-well plate to be about 20,000 cells/cm^2. As a culture solution, a basal medium for each cell supplemented with 0.1, 1, or 10 μM of JSH-23 was used. As a control, a basal medium for each cell supplemented with 0.1% (v/v) DMSO instead of JSH-23 was used as a culture solution.
(§2) A lipofection solution was prepared by adding Lipofectamine RNAiMAX and fluorescent protein GFP mRNA to OptiMEM. As the GFP mRNA, that containing uridine or that containing pseudouridine instead of uridine was used. In addition, for those containing pseudouridine, a basal medium for each cell supplemented with 1 μM of JSH-23 was used, and as a control, a basal medium for each cell supplemented with 0.1% (v/v) DMSO instead of JSH-23 was used as a culture solution. It was prepared so that the amount of mRNA was 10 pg/cell for human mesenchymal stem cells and 5 pg/cell for human myoblasts. The prepared lipofection solution was mixed well according to the manufacturer's recommended protocol and allowed to stand at room temperature for about 15 minutes.
(§3) Next, each lipofection solution was added to the plate seeded with human mesenchymal stem cells or human myoblasts, and cultured in a CO2 incubator at 37° C. for about 1 day (18 hours) (human mesenchymal stem cells) or for 2 days (42 hours) (human myoblasts). After culturing, all the culture solution comprising the lipofection solution was removed and replaced with a new culture solution having the same composition as before the addition of the lipofection solution.
(§4) After another 6 hours, the above lipofection solution was newly prepared, added again to the plate seeded with human mesenchymal stem cells or human myoblasts, and cultured in a CO2 incubator at 37° C. for about 1 day (18 hours) (mesenchymal stem cells) or about 2 days (42 hours) (human myoblasts). These steps were repeated so that the introduction of genes was performed a total of 4 times.
(§5) Twenty-four hours after the final introduction of genes, the cells were detached with a cell detachment solution, centrifuged at 600×g for 5 minutes using a centrifuge, to collect the cells. The collected cells were counted using a hemocytometer. Furthermore, the GFP-positive percentage of the collected cells was measured using a flow cytometer. The yield of the number of GFP-positive cells was calculated from the number of cells counted and the GFP-positive rate.
as §1, with “1” for “0.1, 1, or 10”, “calcitriol” for “JSH-23”
(§6) A lipofection solution was prepared by adding Lipofectamine RNAiMAX and fluorescent protein GFP mRNA to OptiMEM. As the GFP mRNA, that containing uridine, or that containing pseudouridine instead of uridine was used. It was prepared so that the amount of mRNA was 10 pg/cell for human mesenchymal stem cells and 5 pg/cell for human myoblasts. The prepared lipofection solution was mixed well according to the manufacturer's recommended protocol and allowed to stand at room temperature for about 15 minutes.

[2] = tested on: human myoblasts; test: as above; conditions: calcitriol 1 μM
Description: as §1, §2, §3, §4, §5
as §1, with “1” for “0.1, 1, or 10”, “calcitriol” for “JSH-23”
as §6

[3] = tested on: human myoblasts; test: Introduction of GFP viral vector (polybrene method), yield of GFP-positive cells; conditions: calcitriol 1 μM; viral vector MOI 0.1, 5 or 10, polybrene 0, 5 or 10 μg/mL; depending on the transduction conditions
Description: Human mesenchymal stem cells were seeded in a 6-well plate to be about 2,000 cells/cm^2. Human myoblasts were seeded in another 6-well plate to be about 2,000 cells/cm^2. As a culture solution, a basal medium for each cell supplemented with JSH-23 was used. JSH-23 was added at 1 μM to the culture solution used for human mesenchymal stem cells, and at 0.1 μM to the culture solution used for human myoblasts. As a control, a basal medium, i.e., αMEM (+10% serum) for human mesenchymal stem cells and MCDB131 (+10% serum) for human myoblasts, to which 0.1% (v/v) DMSO instead of JSH-23 was added was used as a culture solution.
A mixed solution was prepared by mixing GFP viral vector and a polybrene solution. […]
Next, the above mixed solution was added to the plate seeded with human mesenchymal stem cells or human myoblasts, and cultured in a CO2 incubator at 37° C. for 24 hours.
as §5, with “Four days” for “Twenty-four hours”, “addition” for “final introduction”, “the virus-free culture solution,” for “genes,”, “solution and” for “solution,”, “percentage. […]” for “rate.”

[4] = tested on: human mesenchymal stem cells; test: Introduction of GFP mRNA with PEIMAX and other NFκB nuclear translocation inhibitors (Example 13), cell yield; conditions: GFP mRNA 10 pg/cell, PEIMAX
Description: Improvement in the yield of transgenic cells was investigated when using the NFκB nuclear translocation inhibitor of the present invention other than JSH-23 and calcitriol. Introduction of genes was performed using vitamin B6, vitamin C, vitamin E, and rolipram as an NFκB nuclear translocation inhibitor other than JSH-23 and calcitriol. The specific procedure is as follows.
Human mesenchymal stem cells were seeded in a 6-well plate to be about 10,000 cells/cm^2. As a culture solution, a basal medium supplemented with vitamin B6 and vitamin E at 2 μM and 10 μM, vitamin C at 20 μM and 100 μM, and rolipram at 10 μM was used. As a control, the basal medium for each cell supplemented with 0.1% (v/v) DMSO instead of each compound was used as a culture solution.
A lipofection solution was prepared by adding PEIMAX and fluorescent protein GFP mRNA to OptiMEM. It was prepared so that the amount of mRNA was 10 pg/cell. […]
as §5, with “cells. In addition, the” for “cells. The”, “GFP-positive percentage.” for “GFP-positive rate.”

C=C1/C(=C\C=C2/CCC[C@]3(C)[C@@H]([C@H](C)CCCC(C)(C)O)CC[C@@H]23)C[C@@H](O)C[C@@H]1O [calcitriol]
yield of GFP-positive cells compared to the control (control set to 1) [1]: ≥ 2.7 times
yield of GFP-positive cells compared to the control (control set to 1) ([2]; GFP mRNA containing pseudouridine instead of uridine, 5 pg/cell): ≥ 4 times
yield of GFP-positive cells compared to the control (control set to 1) ([2]; GFP mRNA containing uridine, 5 pg/cell, second statement of b89): ≥ 5 times
yield of GFP-positive cells compared to the control (control set to 1) ([2]; GFP mRNA containing uridine, first statement of b89, printed as human myoblasts): ≥ 7 times
increase of the number of GFP-positive cells by adding calcitriol [3]: about 4.5 times

COc1ccc(C2CNC(=O)C2)cc1OC1CCCC1 (stereo not shown) [rolipram]
number of viable cells after introduction of genes relative to control (set to 1) ([4]; compound at 10 μM): about 1.3 times

Cc1ncc(CO)c(CO)c1O.Cl [vitamin B6]
number of viable cells after introduction of genes relative to control (set to 1) ([4]; compound at 2 μM and 10 μM): about 1.2 times

From patent US20250327032A1, “AGENT FOR AVOIDING IMMUNE RESPONSE OF TRANSGENIC CELLS” (HYPERION DRUG DISCOVERY CO., LTD., priority 2021, published 2025)
